Reference: PubChem BioAssay (NCI)
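Values below derive from 48-hour exposures of cells grown in 96-well plates, with endpoints linearly interpolated between the two concentrations bracketing the appropriate inhibition level. Definition used: TGI = concentration required for complete inhibition of growth.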

Tests used:
Assay in all cases: inhibition of tumour cell growth, NCI panel, 48 h
[1] = test system: UO-31 renal
[2] = test system: OVCAR-8 ovarian
[3] = test system: HCC-2998 colon
[4] = test system: TK-10 renal
[5] = test system: ACHN renal
[6] = test system: LOX IMVI melanoma
[7] = test system: SW-620 colon
[8] = test system: A549 NSCLC
[9] = test system: EKVX NSCLC
[10] = test system: SK-OV-3 ovarian
[11] = test system: CAKI-1 renal
[12] = test system: MDA-MB-231 breast
[13] = test system: SK-MEL-28 melanoma
[14] = test system: SK-MEL-5 melanoma
[15] = test system: PC-3 prostate
[16] = test system: M14 melanoma
[17] = test system: SF-268 CNS
[18] = test system: MALME-3M melanoma
[19] = test system: U251 CNS
[20] = test system: SF-295 CNS
[21] = test system: SNB-19 CNS
[22] = test system: NCI-H522 lung
[23] = test system: 786-0 renal
[24] = test system: KM12 colon
[25] = test system: RXF 393 renal
[26] = test system: NCI-H23 lung
[27] = test system: UACC-62 melanoma
[28] = test system: IGROV1 ovarian
[29] = test system: HOP-92 NSCLC
[30] = test system: SN12C renal
[31] = test system: MOLT-4 leukemia
[32] = test system: MDA-N
[33] = test system: UACC-257 melanoma
[34] = test system: OVCAR-5 ovarian
[35] = test system: SK-MEL-2 melanoma
[36] = test system: SF-539 CNS
[37] = test system: OVCAR-3 ovarian
[38] = test system: SNB-75 CNS
[39] = test system: OVCAR-4 ovarian
[40] = test system: SR leukemia
[41] = test system: NCI-H460 lung
[42] = test system: COLO 205 colon
[43] = test system: HOP-62 NSCLC
[44] = test system: MDA-MB-435
[45] = test system: CCRF-CEM leukemia
[46] = test system: BT-549 breast
[47] = test system: K-562 leukemia
[48] = test system: DU-145 prostate
[49] = test system: T-47D breast
[50] = test system: NCI-H226 lung
[51] = test system: RPMI-8226 leukemia
[52] = test system: A498 renal
[53] = test system: HCT-116 colon
[54] = test system: HT29 colon
[55] = test system: MCF7 breast
[56] = test system: HL-60(TB) leukemia
[57] = test system: HCT-15 colon
[58] = test system: HS 578T breast
[59] = test system: NCI/ADR-RES ovarian

O=C1c2ccccc2C(=O)[C@@]23O[C@@]12C1(Oc2cccc4cccc(c24)O1)[C@@H]1O[C@@H]1[C@@H]3O
TGI [1]: 24.4 µM
TGI [2]: 12.8 µM
TGI [3]: 22 µM
TGI [4]: 15.9 µM
TGI [5]: 27.7 µM
TGI [6]: 16.5 µM
TGI [7]: > 49.1 µM
TGI [8]: > 49 µM
TGI [9]: 54.2 µM
TGI [10]: 28.6 µM
TGI [11]: 24.5 µM
TGI [12]: 41.1 µM
TGI [13]: > 54.1 µM
TGI [14]: > 64.3 µM
TGI [15]: 34.3 µM
TGI [16]: 23.4 µM
TGI [17]: 25.4 µM
TGI [18]: 30.3 µM
TGI [19]: > 47.6 µM
TGI [20]: 26 µM
TGI [21]: 28.8 µM
TGI [22]: 15.6 µM
TGI [23]: 11.6 µM
TGI [24]: 27.3 µM
TGI [25]: 10.4 µM
TGI [26]: 29.6 µM
TGI [27]: 27.2 µM
TGI [28]: 27.4 µM
TGI [29]: 31.9 µM
TGI [30]: 26.1 µM
TGI [31]: 24.5 µM
TGI [32]: 32 µM
TGI [33]: 40.1 µM
TGI [34]: 39.3 µM
TGI [35]: 42.1 µM
TGI [36]: 9.56 µM
TGI [37]: 12.6 µM
TGI [38]: 24 µM
TGI [39]: 17.4 µM
TGI [40]: > 100 µM
TGI [41]: 23.6 µM
TGI [42]: 27 µM
TGI [43]: 25.7 µM
TGI [44]: > 59.6 µM
TGI [45]: > 38.7 µM
TGI [46]: 11.1 µM
TGI [47]: > 29.8 µM
TGI [48]: 33.2 µM
TGI [49]: 29.8 µM
TGI [50]: 28.9 µM
TGI [51]: > 23.1 µM
TGI [52]: > 100 µM
TGI [53]: 15.1 µM
TGI [54]: 15.2 µM
TGI [55]: 14.6 µM
TGI [56]: 4.89 µM
TGI [57]: 17.6 µM
TGI [58]: 51.8 µM
TGI [59]: 15.7 µM

CC(C)(C)c1cc(C2NCCO2)cc(C(C)(C)C)c1O (stereo not given)
TGI [2]: > 100 µM
TGI [4]: > 100 µM
TGI [5]: > 100 µM
TGI [6]: > 100 µM
TGI [7]: > 100 µM
TGI [9]: > 100 µM
TGI [10]: > 100 µM
TGI [11]: > 100 µM
TGI [12]: 54.8 µM
TGI [13]: > 100 µM
TGI [14]: > 100 µM
TGI [15]: > 100 µM
TGI [17]: > 100 µM
TGI [18]: > 100 µM
TGI [19]: > 100 µM
TGI [20]: > 100 µM
TGI [22]: > 100 µM
TGI [23]: > 100 µM
TGI [24]: > 100 µM
TGI [25]: 37.8 µM
TGI [26]: > 100 µM
TGI [27]: > 100 µM
TGI [28]: > 100 µM
TGI [29]: > 100 µM
TGI [30]: > 100 µM
TGI [31]: > 100 µM
TGI [32]: > 100 µM
TGI [33]: > 100 µM
TGI [34]: > 100 µM
TGI [35]: > 100 µM
TGI [36]: > 100 µM
TGI [37]: > 100 µM
TGI [38]: 30.6 µM
TGI [39]: > 100 µM
TGI [40]: > 100 µM
TGI [41]: > 100 µM
TGI [42]: > 100 µM
TGI [43]: > 100 µM
TGI [44]: > 100 µM
TGI [45]: > 100 µM
TGI [46]: > 100 µM
TGI [47]: > 100 µM
TGI [48]: > 100 µM
TGI [49]: 27.6 µM
TGI [50]: > 100 µM
TGI [51]: > 100 µM
TGI [52]: > 100 µM
TGI [53]: > 100 µM
TGI [54]: > 100 µM
TGI [55]: > 100 µM
TGI [56]: > 100 µM
TGI [57]: > 100 µM
TGI [58]: > 100 µM
TGI [59]: > 100 µM

COc1ccc2c(=O)c3ccoc3n(CC=C(C)C)c2c1
TGI [1]: > 100 µM
TGI [2]: > 100 µM
TGI [3]: > 100 µM
TGI [4]: > 100 µM
TGI [6]: > 100 µM
TGI [7]: > 100 µM
TGI [8]: > 100 µM
TGI [9]: > 100 µM
TGI [10]: > 100 µM
TGI [11]: 9.83 µM
TGI [12]: > 100 µM
TGI [13]: > 100 µM
TGI [14]: > 69.3 µM
TGI [15]: > 100 µM
TGI [16]: > 100 µM
TGI [17]: > 100 µM
TGI [18]: 18.7 µM
TGI [19]: > 100 µM
TGI [20]: > 100 µM
TGI [21]: > 100 µM
TGI [22]: > 33.2 µM
TGI [23]: > 100 µM
TGI [24]: > 100 µM
TGI [25]: > 81.1 µM
TGI [26]: > 100 µM
TGI [27]: > 100 µM
TGI [28]: > 100 µM
TGI [29]: > 63.7 µM
TGI [30]: > 100 µM
TGI [31]: > 100 µM
TGI [32]: > 100 µM
TGI [33]: > 100 µM
TGI [34]: > 100 µM
TGI [35]: > 100 µM
TGI [36]: > 100 µM
TGI [37]: > 100 µM
TGI [38]: > 100 µM
TGI [39]: > 100 µM
TGI [40]: > 100 µM
TGI [41]: > 100 µM
TGI [42]: > 100 µM
TGI [43]: > 100 µM
TGI [44]: > 100 µM
TGI [45]: > 100 µM
TGI [46]: > 100 µM
TGI [47]: > 100 µM
TGI [48]: > 100 µM
TGI [49]: > 100 µM
TGI [50]: > 100 µM
TGI [51]: > 100 µM
TGI [52]: > 100 µM
TGI [53]: > 100 µM
TGI [54]: > 100 µM
TGI [55]: > 100 µM
TGI [56]: > 96.6 µM
TGI [57]: > 100 µM
TGI [58]: > 100 µM
TGI [59]: 76.4 µM

CN(CCCCN1CCCC1)CCCN(C)C(=O)Cc1ccc(Cl)c(Cl)c1
TGI [1]: 3.72 µM
TGI [2]: > 100 µM
TGI [3]: 16.9 µM
TGI [4]: 33.7 µM
TGI [5]: > 100 µM
TGI [6]: 27.9 µM
TGI [7]: 42.6 µM
TGI [8]: 44.5 µM
TGI [9]: 37.6 µM
TGI [10]: > 100 µM
TGI [11]: 49.6 µM
TGI [12]: 26.1 µM
TGI [13]: 3.51 µM
TGI [14]: 23.8 µM
TGI [15]: 52.7 µM
TGI [16]: 38.1 µM
TGI [17]: > 100 µM
TGI [18]: 34.7 µM
TGI [19]: 32.4 µM
TGI [20]: 38.8 µM
TGI [21]: 57.2 µM
TGI [22]: 27.9 µM
TGI [23]: 26.1 µM
TGI [24]: 25.3 µM
TGI [25]: 29.6 µM
TGI [26]: 37.7 µM
TGI [27]: 16.9 µM
TGI [28]: 45.2 µM
TGI [29]: 21.3 µM
TGI [30]: 37.8 µM
TGI [31]: 26.5 µM
TGI [32]: 15.5 µM
TGI [33]: 13.5 µM
TGI [34]: 57.8 µM
TGI [35]: 22.5 µM
TGI [36]: 24.3 µM
TGI [37]: 62.4 µM
TGI [38]: 47.5 µM
TGI [39]: 53.8 µM
TGI [40]: 15.6 µM
TGI [41]: 39.8 µM
TGI [42]: 28.9 µM
TGI [43]: 34.4 µM
TGI [44]: 10.2 µM
TGI [45]: 20.9 µM
TGI [46]: 32.5 µM
TGI [47]: 11.6 µM
TGI [48]: > 100 µM
TGI [49]: 44.2 µM
TGI [50]: 51.9 µM
TGI [51]: 25.9 µM
TGI [52]: 30.7 µM
TGI [53]: 28.3 µM
TGI [54]: 18.1 µM
TGI [55]: 34.4 µM
TGI [56]: 34.1 µM
TGI [57]: 85.1 µM
TGI [58]: 59.6 µM
TGI [59]: > 100 µM
